Experimental data as given in patent US20080194616A1, “PYRIDOPYRIMIDINONE COMPOUNDS USEFUL IN TREATING SODIUM CHANNEL-MEDIATED DISEASES OR CONDITIONS” (Xenon Pharmaceuticals Inc., priority 2007, published 2008).
Structures can show the parent of a compound that is named as a salt.

| melting point [°C] | SMILES |
| --- | --- |
| 177 to 183 | O=c1c(-c2ccc(N[C@@H]3CCNC3)cc2)c(N2CCCC2)nc2ccccn12 (as salt: chloride) [Example 7.11, (R)-2-pyrrolidin-1-yl-3-{4-[pyrrolidin-3-ylamino]phenyl}-4H-pyrido[1,2-a]pyrimidin-4-one hydrogen chloride] |
| 157 to 162 | CCCCc1nc2ccccn2c(=O)c1-c1ccc2c(c1)CCN2 (as salt: hydrochloride) [Example 2, 2-butyl-3-(indolin-5-yl)-4H-pyrido[1,2-a]pyrimidin-4-one hydrochloride] |
| 155 to 170 | CCCCc1nc2ccccn2c(=O)c1-c1ccc(NC[C@H]2CCCO2)cc1 (as salt: hydrochloride) [Example 3.27, (R)-2-butyl-3-(4-{[tetrahydrofuran-2-ylmethyl]amino}phenyl)-4H-pyrido[1,2-a]pyrimidin-4-one hydrochloride] |
| 155 to 170 | CCCCc1nc2ccccn2c(=O)c1-c1ccc(NC[C@@H]2CCCO2)cc1 (as salt: hydrochloride) [Example 3.28, (S)-2-butyl-3-(4-{[tetrahydrofuran-2-ylmethyl]amino}phenyl)-4H-pyrido[1,2-a]pyrimidin-4-one hydrochloride] |
| 135 to 145 | CCCCc1nc2ccccn2c(=O)c1-c1ccc(N[C@@H]2CCOC2)cc1 (as salt: hydrochloride) [Example 3.29, (R)-2-butyl-3-{4-[tetrahydrofuran-3-ylamino]phenyl}-4H-pyrido[1,2-a]pyrimidin-4-one hydrochloride] |
| 178 to 185 | CCCCc1nc2ccccn2c(=O)c1-c1ccc(NC2CCCNC2)cc1 (centres unmarked) (as salt: hydrochloride) [Example 6, 2-butyl-3-[4-(piperidin-3-ylamino)phenyl]-4H-pyrido[1,2-a]pyrimidin-4-one hydrochloride] |
| > 220 | CCCCc1nc2ccccn2c(=O)c1-c1ccc(NC2CCNCC2)cc1 (as salt: hydrochloride) [Example 6.1, 2-butyl-3-[4-(piperidin-4-ylamino)phenyl]-4H-pyrido[1,2-a]pyrimidin-4-one hydrochloride] |
| 190 to 210 | CCCCc1nc2ccccn2c(=O)c1-c1ccc(N[C@@H]2CCCNC2)cc1 (as salt: hydrochloride) [Example 6.2, (R)-2-butyl-3-{4-[piperidin-3-ylamino]phenyl}-4H-pyrido[1,2-a]pyrimidin-4-one hydrochloride] |
| 149 to 158 | Cc1nc2ccccn2c(=O)c1-c1ccc(N[C@@H]2CCNC2)cc1 (as salt: hydrochloride) [Example 6.3, (R)-2-methyl-3-(4-(pyrrolidin-3-ylamino)phenyl)-4H-pyrido[1,2-a]pyrimidin-4-one hydrochloride] |
| 175 to 182 | CCc1nc2ccccn2c(=O)c1-c1ccc(N[C@@H]2CCNC2)cc1 (as salt: hydrochloride) [Example 6.4, (R)-2-ethyl-3-(4-(pyrrolidin-3-ylamino)phenyl)-4H-pyrido[1,2-a]pyrimidin-4-one hydrochloride] |
| 136 to 139 | CCCCc1nc2ccccn2c(=O)c1-c1ccc(NC2CCNC2)cc1 (centres unmarked) (as salt: hydrochloride) [Example 7, 2-butyl-3-(4-(pyrrolidin-3-ylamino)phenyl)-4H-pyrido[1,2-a]pyrimidin-4-one hydrochloride] |
| 164 to 171 | CCCCc1nc2ccccn2c(=O)c1-c1ccc(N[C@H]2CCNC2)cc1 (as salt: hydrochloride) [Example 7.1, (S)-2-butyl-3-{4-[pyrrolidin-3-ylamino]phenyl}-4H-pyrido[1,2-a]pyrimidin-4-one hydrochloride] |
| 143 to 155 | CCCCc1nc2ccccn2c(=O)c1-c1ccc(N[C@@H]2CCNC2)c(F)c1 (as salt: hydrochloride) [Example 7.2, (R)-2-butyl-3-{3-fluoro-4-[(pyrrolidin-3-ylamino]phenyl}-4H-pyrido[1,2-a]pyrimidin-4-one hydrochloride] |
| 179 to 187 | CCCCc1nc2ccccn2c(=O)c1-c1ccc(N[C@@H]2CCNC2)cc1C (as salt: hydrochloride) [Example 7.3, (R)-2-butyl-3-{2-methyl-4-[pyrrolidin-3-ylamino]phenyl}-4H-pyrido[1,2-a]pyrimidin-4-one hydrochloride] |
| > 170 | CCCCc1nc2ccccn2c(=O)c1-c1cccc(NC2CCNC2)c1 (centres unmarked) (as salt: hydrochloride) [Example 7.4, 2-butyl-3-[3-(pyrrolidin-3-ylamino)phenyl]-4H-pyrido[1,2-a]pyrimidin-4-one hydrochloride] |
| 180 to 184 | CC(C)c1nc2ccccn2c(=O)c1-c1ccc(NC2CCNC2)cc1 (centres unmarked) (as salt: hydrochloride) [Example 7.5, 2-(1-methylethyl)-3-[4-(pyrrolidin-3-ylamino)phenyl]-4H-pyrido[1,2-a]pyrimidin-4-one hydrochloride] |
| 171 to 187 | CC(C)CCc1nc2ccccn2c(=O)c1-c1ccc(N[C@@H]2CCNC2)cc1 (as salt: hydrochloride) [Example 7.6, (R)-2-isopentyl-3-(4-(pyrrolidin-3-ylamino)phenyl)-4H-pyrido[1,2-a]pyrimidin-4-one hydrochloride] |
| 182 to 185 | O=c1c(-c2ccc(N[C@@H]3CCNC3)cc2)c(CCC2CC2)nc2ccccn12 (as salt: hydrochloride) [Example 7.7, (R)-2-(2-cyclopropylethyl)-3-(4-(pyrrolidin-3-ylamino)phenyl)-4H-pyrido[1,2-a]pyrimidin-4-one hydrochloride] |
| 156 to 161 | CCCNc1nc2ccccn2c(=O)c1-c1ccc(NC2CCNC2)cc1 (centres unmarked) (as salt: hydrochloride) [Example 7.8, 2-(propylamino)-3-[4-(pyrrolidin-3-ylamino)phenyl]-4H-pyrido[1,2-a]pyrimidin-4-one hydrochloride] |
| 232 to 236 | CC(C)Nc1nc2ccccn2c(=O)c1-c1ccc(NC2CCNC2)cc1 (centres unmarked) (as salt: hydrochloride) [Example 7.9, 2-[(1-methylethyl)amino]-3-[4-(pyrrolidin-3-ylamino)phenyl]-4H-pyrido[1,2-a]pyrimidin-4-one hydrochloride] |
| 229 to 234 | CC(C)Nc1nc2ccccn2c(=O)c1-c1ccc(N[C@@H]2CCNC2)cc1 (as salt: hydrochloride) [Example 7.10, (R)-2-[(1-methylethyl)amino]-3-{4-[pyrrolidin-3-ylamino]phenyl}-4H-pyrido[1,2-a]pyrimidin-4-one hydrochloride] |
| 159 to 163 | CCCCc1nc2ccccn2c(=O)c1-c1ccc2c(c1)CCN2C1CCNC1 (centres unmarked) (as salt: hydrochloride) [Example 7.12, 2-butyl-3-(1-(pyrrolidin-3-yl)indolin-5-yl)-4H-pyrido[1,2-a]pyrimidin-4-one hydrochloride] |
| > 245 | CCCCc1nc2ccccn2c(=O)c1-c1ccc(N2CCNCC2)nc1 (as salt: hydrochloride) [Example 7.13, 2-butyl-3-(6-piperazin-1-ylpyridin-3-yl)-4H-pyrido[1,2-a]pyrimidin-4-one hydrochloride] |
